Reference: patent US6699872B2, “N-substituted urea inhibitors of farnesyl-protein transferase” (Schering Corporation, priority 1997, dated 2004)

How the values were obtained:
[1] = system: Ras processing in COS cells; experiment: Cell-based assay: COS cells, inhibition of Ras processing
Experimental: 2. Cell-Based Assay. COS IC50 values refer to the COS cells activity inhibition of Ras processing, are determined by the methods disclosed in […] or WO 95/10516.

[2] = biological target: T1, partially purified rat brain farnesyl protein transferase (FPT) (Rattus norvegicus, UniProt Q02293+Q04631); experiment: In vitro enzyme assay: inhibition of Ras-CVLS farnesylation by FPT; type: biochemical
T1 construct: partially purified rat brain farnesyl protein transferase (FPT); from tissue; host or cells: rat brain

IC50 [2]	Compound	IC50 [1]
5.1 nM	COc1ccccc1NC(=O)N1CCC(CC(=O)N2CCC([C@H]3c4ncc(Br)cc4CCc4cc(Cl)cc(Br)c43)CC2)CC1 [Example 1]	50 nM
5.4 nM	O=C(CC1CCN(C(=O)Nc2ccccc2)CC1)N1CCC([C@H]2c3ncc(Br)cc3CCc3cc(Cl)cc(Br)c32)CC1 [Example 2]	33 nM
1.9 nM	CNC(=O)N1CCC(CC(=O)N2CCC([C@H]3c4ncc(Br)cc4CCc4cc(Cl)cc(Br)c43)CC2)CC1 [Example 3]	
2 nM	CCOC(=O)CNC(=O)N1CCC(CC(=O)N2CCC([C@H]3c4ncc(Br)cc4CCc4cc(Cl)cc(Br)c43)CC2)CC1 [Example 4]	
1.7 nM	CCOC(=O)N1CCC(NC(=O)N2CCC(CC(=O)N3CCC([C@H]4c5ncc(Br)cc5CCc5cc(Cl)cc(Br)c54)CC3)CC2)CC1 [Example 6]	20 nM
3.8 nM	O=C(CC1CCN(C(=O)N(CCO)CCO)CC1)N1CCC([C@H]2c3ncc(Br)cc3CCc3cc(Cl)cc(Br)c32)CC1 [Example 7]	18 nM
8.7 nM	COC(=O)[C@H](COC(C)(C)C)NC(=O)N1CCC(CC(=O)N2CCC([C@H]3c4ncc(Br)cc4CCc4cc(Cl)cc(Br)c43)CC2)CC1 [Example 8]	120 nM
3.3 nM	COC(=O)[C@H](CO)NC(=O)N1CCC(CC(=O)N2CCC([C@H]3c4ncc(Br)cc4CCc4cc(Cl)cc(Br)c43)CC2)CC1 [Example 9]	110 nM
4.6 nM	NC(=O)[C@H](CO)NC(=O)N1CCC(CC(=O)N2CCC([C@H]3c4ncc(Br)cc4CCc4cc(Cl)cc(Br)c43)CC2)CC1 [Example 10]	300 nM
3.1 nM	O=C(CC1CCN(C(=O)NCCO)CC1)N1CCC([C@H]2c3ncc(Br)cc3CCc3cc(Cl)cc(Br)c32)CC1 [Example 11]	18 nM
0.8 nM	O=C(O)CNC(=O)N1CCC(CC(=O)N2CCC([C@H]3c4ncc(Br)cc4CCc4cc(Cl)cc(Br)c43)CC2)CC1 [Example 12]	
0.9 nM	NC(=O)CNC(=O)N1CCC(CC(=O)N2CCC([C@H]3c4ncc(Br)cc4CCc4cc(Cl)cc(Br)c43)CC2)CC1 [Example 13]	25 nM
50 nM	CNC(=O)N1CCC(CC(=O)N2CCN(C3c4ccc(Cl)cc4CCc4cc(Br)cnc43)CC2)CC1 (stereo not shown) [Example 14, 4-[2-[4-(3-Bromo-8-chloro-6,11-dihydro-5H-benzo[5,6]-cyclohepta[1,2-b]pyridin-11-yl)-1-piperazinyl]-2-oxoethyl]-N-methyl-1-piperidinecarboxamide]	750 nM
100 nM	CCCNC(=O)N1CCC(CC(=O)N2CCN(C3c4ccc(Cl)cc4CCc4cc(Br)cnc43)CC2)CC1 (stereo not shown) [Example 15, 4-[2-[4-(3-Bromo-8-chloro-6,11-dihydro-5H-benzo[5,6]cyclohepta[1,2-b]pyridin-11-yl)-1-piperazinyl]-2-oxoethyl]-N-propyl-1-piperidinecarboxamide]	1500 nM
108 nM	CC(C)(C)NC(=O)N1CCC(CC(=O)N2CCN(C3c4ccc(Cl)cc4CCc4cc(Br)cnc43)CC2)CC1 (stereo not shown) [Example 16, 4-[2-[4-(3-Bromo-8-chloro-6,11-dihydro-5H-benzo[5,6]cyclohepta[1,2-b]pyridin-11-yl)-1-piperazinyl]-2-oxoethyl]-N-(1,1-dimethylethyl)-1-piperidinecarboxamide]	

Compound	IC50 [2]	IC50 [1]
(+)-Methyl alpha(S)-[[[4-[2-[4-[(3,10-dibromo-8-chloro-6,11-dihydro-5H-benzo[5,6]cyclohepta[1,2-b]pyridin-11(R)-yl)-1-piperidinyl]-2-oxoethyl]-1-piperidinyl]carbonyl]amino]-beta-methylbutanoate [Example 5]	5 nM	150 nM
